Experimental data reported in publication PMC9739695, “Water-Soluble Salts Based on Benzofuroxan Derivatives—Synthesis and Biological Activity” (International Journal of Molecular Sciences, 2022).
Structures can show the parent of a compound that is named as a salt. Where two headings read alike, the source gives them in different places.

Tests used:
[1] = system: Hek 293 (human embryonic kidneys); assay: Cell viability, MTT test, normal cell line; format: cell-based; conditions: HEK293, Hek 293 normal cells, test range 0.1 to 100 μM, read-out: IC50 (concentration causing 50% inhibition of cell population growth)
Protocol: (§1) In this work, the cytotoxic potential of the water-soluble salts based on benzofuroxan was determined by the effect of compounds on the survival of the cell tumor origin cultures (SH-SY5Y, Hep2, A549, HeLa) using the MTT test. To understand how the synthesized compounds can influence the healthy microenvironment in the body, the effect of substances on the viability of a normal Hek 293 cell culture was additionally evaluated.
(§2) Human cell cultures of tumor origin—SH-SY5Y (neuroblastoma), HeLa (cervical tumor), Hep-2 (larynx carcinoma), A549 (adenocarcinomic human alveolar basal epithelial cells)—and normal cell line Hek 293 (human embryonic kidneys), provided by the Laboratory of Tumor Cell Genetics of the Scientific Research Institute of Carcinogenesis, N.N. Blokhin National Medical Research Center of Oncology, as well as the Institute of Cytology of the Russian Academy of Sciences, were grown in a nutrient medium DMEM (PanEco, Moscow, Russia) and MEM (PanEco, Moscow, Russia), containing fetal bovine serum (10% by volume) (ThermoFisher Scientific, Paisley, UK), Glutamax (2 mM) (Gibco, Scotland, UK), and penicillin-streptomycin (1% by volume) (PanEco, Moscow, Russia). The cultivation was carried out at 37 °C in a humidified CO2 atmosphere (5%).
(§3) Cell viability was determined by MTT test. Cells were seeded in a 96-well plate in the amount of 1 × 10^4 cells/200µLof complete nutrient medium and cultured at 37 °C in CO2 (5%). After 24 h of incubation, various concentrations of test compounds in the range from 0.1 to 100 μM, were added to the cell cultures, and then the cells were cultured under the same conditions for 24 and 72 h. For each concentration, the experiment was carried out in triplicate.
(§4) All compounds were dissolved in DMSO, then diluted with the medium to the required concentration. […] The DMSO was also added to the control wells in a volume of 1%. After the incubation time, MTT (3-(4,5-dimethylthiazol-2-yl)-2,5-diphenyltetrazolium bromide, 5 mg/mL) was added to each well and plates were additionally incubated for 2 h (until the characteristic color appeared).
(§5) Using a plate analyzer (Cytation3, BioTech Instruments Inc., Winooski, VT, USA), the optical density was determined at 530 nm. The concentration value causing 50% inhibition of cell population growth (IC50) was determined from dose-dependent curves.

sorghum seeds = assay: Pre-sowing seed treatment, sowing qualities of sorghum seeds; format: in vivo; conditions: for germination energy: control 52.3; for laboratory germination: control 57
Protocol: (§6) When evaluating the effectiveness of treatment of wheat, alfalfa, barley, rice, and sorghum seeds as fungicidal and bactericidal agents with preparation compounds at concentrations of 10, 20, and 40 mmol, their effect on the suppression of seed infection was evaluated.
(§7) […] The sowing qualities were evaluated (germination energy for 3–4 days, laboratory germination for 7–8 days) according to GOST 12038-84 [60]. Sowing qualities of seeds were determined in wet chambers. According to the sample, 50 seeds were taken in 4-fold repetition.

[2] = system: fungal microflora (mushrooms) on alfalfa seeds; assay: Growth of fungal microflora on treated alfalfa seeds; format: cell-based
Protocol: During phytopathological analyses of agricultural crops, the species composition of fungal and bacterial microflora was established. Laboratory studies were carried out on two nutrient media potato-agar (ingredients: potatoes—200 g; agar-agar—20 g; distilled water—1000 mL.) and potato-dextrose agar (ingredients: potatoes—200 g;dextrose—20 g; agar-agar—20 g; distilled water—1000 mL), according to the guidelines.
When evaluating the effectiveness of treatment of wheat, alfalfa, barley, rice, and sorghum seeds as […], their effect on the suppression of seed infection was evaluated.

alfalfa seeds = assay: Pre-sowing seed treatment, sowing qualities of alfalfa seeds; format: in vivo; conditions: for germination energy / laboratory germination: control 76
Protocol: as §6, §7

rice seeds = assay: Pre-sowing seed treatment, sowing qualities of rice seeds; format: in vivo; conditions: for germination energy: control 71.4; for laboratory germination: control 95.2
Protocol: as §6, §7

SH-SY5Y (neuroblastoma) = assay: Cell viability, MTT test; format: cell-based, Human; conditions: Homo sapiens, SH-SY5Y, test range 0.1 to 100 μM, read-out: IC50 (concentration causing 50% inhibition of cell population growth)
Protocol: as §1, §2, §3, §4, §5

Hep-2 (larynx carcinoma) = assay: Cell viability, MTT test; format: cell-based; conditions: Homo sapiens, HEp-2, test range 0.1 to 100 μM, read-out: IC50 (concentration causing 50% inhibition of cell population growth)
Protocol: as §1, §2, §3, §4, §5

[3] = system: A549 (adenocarcinomic human alveolar basal epithelial cells); assay: Cell viability, MTT test; format: cell-based; conditions: test range 0.1 to 100 μM, read-out: IC50 (concentration causing 50% inhibition of cell population growth)
Protocol: as §1, §2, §3, §4, §5

HeLa (cervical tumor) = assay: Cell viability, MTT test; format: cell-based; conditions: Homo sapiens, test range 0.1 to 100 μM, read-out: IC50 (concentration causing 50% inhibition of cell population growth)
Protocol: as §1, §2, §3, §4, §5

wheat seeds = assay: Pre-sowing seed treatment, sowing qualities of wheat seeds; format: in vivo; conditions: for germination energy: control 82; for laboratory germination: control 85.7
Protocol: as §6, §7

barley seeds = assay: Pre-sowing seed treatment, sowing qualities of barley seeds; format: in vivo; conditions: for germination energy / laboratory germination: control 95.2
Protocol: as §6, §7

With `CN(C)Cc1ccccc1Nc1c([N+](=O)[O-])c(Cl)cc2c1no[n+]2[O-].Cl` [4a, 6-chloro-4-(2-((dimethylammonio)methyl)phenylamino)-5-nitrobenzo[c][1,2,5]oxadiazole 1-oxide chloride] the IC50 ([1]; incubation 24 h) was 38.62 ± 0.1 µM, the IC50 ([1]; incubation 72 h) was 16.1 ± 1.86 µM and the germination energy (sorghum seeds; 10 mmol) was 47.5%. The laboratory germination (sorghum seeds; 10 mmol) was 49.5%, the “sowing qualities of seeds compared with control” value (sorghum seeds; 50 mmol) was “at the control level” and the germination energy (sorghum seeds; 50 mmol) was 52.5%. The laboratory germination (sorghum seeds; 50 mmol) was 56.5%, the “effect on fungal microflora” value ([2]; 10 mmol) was “positive effect on the suppression of fungal microflora” and the “effect on fungal microflora” value ([2]; 50 mmol) was “positive effect on the suppression of fungal microflora”. For the same compound, the “sowing qualities of seeds compared with control” value (alfalfa seeds; 10 mmol) was “higher than controls”, the germination energy (alfalfa seeds; 10 mmol) was 83% and the laboratory germination (alfalfa seeds; 10 mmol) was 84.5%. The “sowing qualities of seeds compared with control” value (alfalfa seeds; 50 mmol) was “higher than controls”, the germination energy (alfalfa seeds; 50 mmol) was 78% and the laboratory germination (alfalfa seeds; 50 mmol) was 79.5%. The “sowing qualities of seeds compared with control” value (rice seeds; 10 mmol) was “better results than the control”, the germination energy (rice seeds; 10 mmol) was 96% and the laboratory germination (rice seeds; 10 mmol) was 96.5%. For the same compound, the “sowing qualities of seeds compared with control” value (rice seeds; 50 mmol) was “better results than the control”, the germination energy (rice seeds; 50 mmol) was 99% and the laboratory germination (rice seeds; 50 mmol) was 99%. It also gave an IC50 (SH-SY5Y (neuroblastoma); incubation 24 h) of 44 ± 1.09 µM, an IC50 (SH-SY5Y (neuroblastoma); incubation 72 h) of 35.1 ± 3.85 µM and an IC50 (Hep-2 (larynx carcinoma); Hep2, incubation 24 h) of 98.5 ± 2.54 µM. The IC50 (Hep-2 (larynx carcinoma); Hep2, incubation 72 h) was 90.1 ± 3.1 µM, the IC50 ([3]; A549, incubation 24 h) was 95.5 ± 1.01 µM and the IC50 ([3]; A549, incubation 72 h) was 92.1 ± 3.58 µM. For the same compound, the IC50 (HeLa (cervical tumor); incubation 24 h) was 40.2 ± 2.73 µM, the IC50 (HeLa (cervical tumor); incubation 72 h) was 32.9 ± 0.56 µM and the “sowing qualities of seeds compared with control” value (wheat seeds; 10 mmol) was “higher than in the case of controls”. For the same compound, the germination energy (wheat seeds; 10 mmol) was 97%, the laboratory germination (wheat seeds; 10 mmol) was 96.5% and the “sowing qualities of seeds compared with control” value (wheat seeds; 50 mmol) was “higher than in the case of controls”. The germination energy (wheat seeds; 50 mmol) was 95%, the laboratory germination (wheat seeds; 50 mmol) was 96.5% and the melting point was 125 to 126 °C (dec.). For the same compound, the “sowing qualities of seeds compared with control” value (barley seeds; 10 mmol) was “higher than control”, the germination energy (barley seeds; 10 mmol) was 96% and the laboratory germination (barley seeds; 10 mmol) was 99%. For the same compound, the “sowing qualities of seeds compared with control” value (barley seeds; 50 mmol) was “higher than control”, the germination energy (barley seeds; 50 mmol) was 95% and the laboratory germination (barley seeds; 50 mmol) was 97.5%.
`Cl.O=[N+]([O-])c1c(Cl)cc2c(no[n+]2[O-])c1NCCN1CCCCC1` showed a melting point of 106 to 107 °C.
`CN(C)Cc1cccc(Nc2c([N+](=O)[O-])c(Cl)cc3c2no[n+]3[O-])c1` [3b, 6-chloro-4-(3-((dimethylamino)methyl)phenylamino)-5-nitrobenzo[c][1,2,5]oxadiazole 1-oxide] showed a melting point of 118 to 119 °C.
For `CN(C)Cc1ccc(Nc2c([N+](=O)[O-])c(Cl)cc3c2no[n+]3[O-])cc1` [3c, 6-chloro-4-(4-((dimethylamino)methyl)phenylamino)-5-nitrobenzo[c][1,2,5]oxadiazole 1-oxide], the melting point was > 300 °C (dec.).
Work on `O=[N+]([O-])c1c(Cl)cc2c(no[n+]2[O-])c1NCCN1CCOCC1` (as salt: chloride) [4d, 6-chloro-4-(2-(morpholino-4-ium)ethylamino)-5-nitrobenzo[c][1,2,5]oxadiazole 1-oxide chloride] yielded a melting point of 186 to 187 °C.
Compound `CN(C)Cc1cccc(Nc2c([N+](=O)[O-])c(Cl)cc3c2no[n+]3[O-])c1` [4b, 6-chloro-4-(3-((dimethylammonio)methyl)phenylamino)-5-nitrobenzo[c][1,2,5]oxadiazole 1-oxide chloride] has an IC50 ([1]; incubation 24 h) of 35 ± 1.35 µM, an IC50 ([1]; incubation 72 h) of 27.2 ± 2.5 µM and an IC50 (SH-SY5Y (neuroblastoma); incubation 24 h) of 45.2 ± 2.43 µM. For the same compound, the IC50 (SH-SY5Y (neuroblastoma); incubation 72 h) was 32.1 ± 1.41 µM, the IC50 (Hep-2 (larynx carcinoma); Hep2, incubation 24 h) was 97 ± 2.08 µM and the IC50 (Hep-2 (larynx carcinoma); Hep2, incubation 72 h) was 93.1 ± 2.3 µM. For the same compound, the IC50 ([3]; A549, incubation 24 h) was 99.2 ± 3.38 µM, the IC50 ([3]; A549, incubation 72 h) was 90 ± 2.04 µM and the IC50 (HeLa (cervical tumor); incubation 24 h) was 46.1 ± 0.56 µM. It also gave an IC50 (HeLa (cervical tumor); incubation 72 h) of 38.1 ± 1.21 µM.
With `CN(C)Cc1ccccc1Nc1c([N+](=O)[O-])c(Cl)cc2c1no[n+]2[O-]` [3a, 6-chloro-4-(2-((dimethylamino)methyl)phenylamino)-5-nitrobenzo[c][1,2,5]oxadiazole 1-oxide] the melting point was 152 to 153 °C (dec.).
Compound `O=[N+]([O-])c1c(Cl)cc2c(no[n+]2[O-])c1NCCN1CCCCC1` [3f, 6-chloro-5-nitro-4-(2-(piperidin-1-yl)ethylamino)benzo[c][1,2,5]oxadiazole 1-oxide] has a melting point of 88 to 89 °C.
For `O=[N+]([O-])c1c(Cl)cc2c(no[n+]2[O-])c1NCCN1CCOCC1` [3d, 6-chloro-4-(2-morpholinoethylamino)-5-nitrobenzo[c][1,2,5]oxadiazole 1-oxide], the melting point was 140 to 141 °C.
